Tests used:
[1] = Interfacial shear viscoelasticity, double-wall ring rheometer; type: physicochemical; conditions: for tan (δ) / Fractional G′ / Fractional G″: 1 mM acid in 1% Na2SO4 brine, 25° C.; for tan (δ): compared to the brine; for Fractional G′ / Fractional G″: compared to the brine viscoelastic moduli
Procedure: Rheological experiments were conducted with the GB oil and a low-salinity brine (1% Na2SO4) spiked with low concentration of organic acids using a TA Instruments AR-G2 Rheometer with a double-wall ring geometry. Measurement of the oil-water interface was performed using the rheometer, as the ring of the rheometer was placed directly on the denser phase, with the second phase added carefully at the end. The shear viscoelasticities were recorded at 25° C. Measurements were run in oscillatory time-sweep mode to measure the shear viscoelastic moduli, as the oscillatory time-sweep mode has high sensitivity to measure low frequency and torque values.
The stress response of the oil-water interface can be calculated utilizing Equation 1: σ(t)=γo[G′(ω)sin(ωt)+G″(ω)cos(ωt)] where σ represents the shear stress, t represents the time, γo is the amplitude of the strain, G′(ω) is the elastic or real modulus, and G″(ω) is the viscous or imaginary modulus. The elastic modulus is the instantaneous response to stress and the viscous modulus is the delayed response quantified by a phase angle. The tangent of this angle is represented by the following equation: […]
Experiments were run in the linear viscoelastic region, determined with a strain sweep test at fixed frequency on individual samples to determine appropriate values for each parameter in the following experiments.
The rheometer was cleaned with toluene and methanol and then air-dried; the Pt/Ir ring of the rheometer was flamed to remove residual contaminants and salts before each experiment. The rheometer was positioned on an air-table and was calibrated for geometry, inertia, and friction before each experiment was prepared. The brine was filtered through a 0.45 μm SFCA filter and examined for bubbles before the ring was lowered to sit at the interface. Next, the oil was added on top of the brine in a manner selected to avoid disruption of the interface formed. Without moving the table, the setup was covered and allowed to run for a minimum of five days. The viscoelasticity was measured several times during the first day and then routinely once a day for the remainder of the experiment duration. The temperature was controlled with the Peltier plate beneath the sample holder. When cleaning the rheometer at the end of the experiment, care was taken to recover as much aqueous phase as possible for NMR and pH measurements.
The interfacial viscoelasticity measurements were conducted on samples having a ratio of two parts aqueous phase to one part oil phase. […]

[2] = Emulsion stability by TD-NMR droplet-size distribution; type: physicochemical; conditions: for Δd3 day 5 / Δσ day 5 / Δd3 day 14 / Δσ day 14: 1 mM acid in 1% Na2SO4, 1:1 with GB oil; for Δd3 day 5 / Δσ day 5: change days 1-5; for Δd3 day 14 / Δσ day 14: change days 1-14; for effect on emulsion stability compared to 1% Na2SO4 brine: 1 mM acid, day 14
Procedure: Dispersions were prepared in a 1:1 volume ratio with GB oil to each acid (1 mM) in the 1% Na2SO4 brine. The dispersions were emulsified via […] at 6500 rpm for 30 seconds in an Ultra Turrax T25 basic (IKA-Werke) homogenizer. The emulsions were then homogenized for 3 minutes at 6500 rpm to obtain homogeneous droplets for characterization.
Water-in-oil emulsions were prepared for each acid and the time evolution was tracked on a Bruker Biospin Minispec mq20 time domain nuclear magnetic resonance (TD-NMR). This instrument provides information about the polydispersity (σ) of the system and the diameter size (di). The variable i can represent either the diameter in terms of the number of droplets (1=0) or the diameter in terms of average volume of the droplets (1=3). The unimodal droplet size distribution for the created emulsions can be calculated according to Equation 2:
[formula] where qi is the log-normal distribution, d50,i is the geometric mean diameter. Bruker software is used for the NMR and that calculated the droplet size distribution. The change in diameter in relation to the volume is useful because it is indicative of coalescence.
This technique is advantageous as it is non-invasive and independent of the opacity of the dispersion. […] Droplet coalescence and emulsion stability was inferred by tracking the droplet-size distribution density over time.
The influence of the specific acids on coalescence was evaluated with restricted diffusion in a time-domain nuclear magnetic resonance (TD-NMR) system. […] Measurements were recorded within the first hour after emulsification, and every day for days 1-5, and then on days 7, 10, and 14. The TD-NMR system calculates a median diameter, which relates to the number of droplets present (d0) and the volume of the droplets present (d3). […] The Bruker system software also provides a standard deviation, σ, which is applicable for both diameter values and relates to the polydispersity of the droplets in solution.

[3] = Oil bridge neck diameter / snap-off experiment; conditions: 1 mM acid in 1% Na2SO4, GB oil bridge; for delay of snap-off / bridge failure compared to low-salinity brine: 1 hour aging
Source text: A bridge technique was executed on a modified First Ten Angstroms (FTA) 1000 pendant drop instrument using two opposing vertical needles. The slenderness ratio (A) is defined as the length of the bridge (L) divided by the diameter of the needle (D). A large slenderness ratio is associated with an unstable bridge. The bridge goes through at least two processes. First the oil is bridged between the opposing needles, suspended in the brine and aged up to one hour. While the bridge is aging, the interfacial elasticity increases and the interfacial tension decreases. There are no disruptions or deformation of the system, and thus the surface stress is equal to the interfacial tension. After aging, the bridge goes under the second process during which the oil comprising the bridge is removed at 0.1 μL/s. This response is tracked until bridge failure. During this process, due to the increase in the elasticity of the interface, an extensional longitudinal and compressive circumferential surface stress contribute to the process. The behavior of the oil when the bridge breaks is indicative of the dominant environment of the oil-water interface—e.g., whether the environment is characteristic of an elastic break or an inelastic break. An enhanced elastic break, resulting from the formation of a thick interface, can appear as pointy interface and can show very little recovery of its initial shape, while a viscous break can reform the initial appearance of the oil before the formation of the bridge as shown in FIGS. 8A-8C. FIG. 8A is an image of the bridge initially before any aging or oil removal. FIG. 8B is an image showing the behavior observed in an inelastic break, and FIG. 8C is an image showing the behavior observed in an elastic break. Increased viscoelasticity suppresses interfacial snap-off and helps to sustain a more continuous oil phase. An elastic bridge is much less prone to break and therefore can pull more volumes of oil out (more production).
The behavior of the bridge is monitored with an APPRO camera at a frame rate of 60 frames per second and its geometry is tracked by measuring the neck diameter (ND). The neck diameter is the lowest radius along the vertical axis. The critical neck diameter (CND) is the value corresponding to the last frame of the connected bridge. The ratio of CND/ND is a stability proxy, and assumptions are made that a value close to zero indicates prevalent elastic forces.

[4] = Solubility of acids in brine; type: physicochemical; conditions: no pH adjustment
Procedure: A 1% Na2SO4 brine, equivalent to 2.24 mM (low salinity) and an ionic strength of 6.7 mM, was prepared and vacuumed for two hours before use. The brine was selected because it served as the baseline aqueous phase for the coreflooding experiments. Brine aliquots were then mixed with each of the 18 acid solutions at various concentrations and mixed into solution for several days. […] No adjustments were made to the brine to bring the acids into solution; at higher brine pH, larger naphthenic acids (NAs) solubilize more readily, while smaller ones can often dissolve at neutral pH. At higher pH, the potential for micelle and reverse micelle formation increases. However, embodiments described herein relate to acids that partition naturally, rather than those coaxed from the oil phase, so pH adjustments were not made in order to examine the influence of the acids in the system.
Additionally, the naphthenic acid mixture (NAmix1) was analyzed.

SMILES | tan (δ) ([1]; GB oil) [%] | Fractional G′ ([1]; GB oil) | Fractional G″ ([1]; GB oil) [%] | G′ value (elastic modulus) ([1]; 1 mM acid, day 5, GB oil) | G″ value (viscous modulus) ([1]; 1 mM acid, day 5, GB oil) | interface relative to un-acidified brine values ([1]; 10 mM acid, day 5, GB oil) [%] | concentration at which G′ and G″ plateau (acid believed to form aggregates) ([1]; GB oil, 1% Na2SO4 brine) | Δd3 day 5 [2] | Δσ day 5 [2] | Δd3 day 14 [2] | Δσ day 14 [2] | effect on emulsion stability compared to 1% Na2SO4 brine [2] | aging time after which solid-like film (skin) was visible [3] | bridge break behaviour (elastic / inelastic) [3] | delay of snap-off / bridge failure compared to low-salinity brine [3] | solubility in 1% Na2SO4 brine [4] | aging time after which skin was observed [3] [h]
O=C(O)C1CCCCC1 [NA18, cyclohexane carboxylic acid] | 127 | 42% | 53.5 | about 100 mPa | about 35 mPa | 21.2 | above 2.5 mM | 1.5395 | 0.1263 | 1.572 | 0.2238 | stabilize the emulsions | about 10 minutes | asymmetric elastic skin | delayed bridge failure the longest | especially soluble at higher concentrations | –
O=C(O)C1CCCC1 [NA14, cyclopentane carboxylic acid] | 90.6 | 151% | 137 | – | – | – | – | 1.3475 | 1.3475 | 1.4425 | 0.259 | stabilize the emulsions | – | more elastic break | delays snap-off | – | ~12
O=C(O)[C@@H]1CCCN1 [L-Proline, L-proline] | 114 | 53% | 47 | – | – | – | – | 1.045 | 0.1325 | 1.115 | 0.1722 | stabilize the emulsions | – | – | – | – | –
Cc1ccc(C(=O)O)cc1 [NA12, p-toluic acid] | 189 | 25.8%^ | 48.8 | – | – | – | – | 1.315 | 0.1998 | 1.6025 | 0.3463 | does not encourage coalescence | – | – | – | – | –

Reference: patent publication US12410358B2, “Organic acid-based enhanced waterflooding” (UNIVERSITY OF WYOMING, priority 2018, dated 2025)
